In patent publication US20110189306A1, “COMPOUNDS, COMPOSITIONS AND TREATMENTS FOR V-ATPase RELATED DISEASES” (priority 2010, published 2011):
“Also recorded” adds a separate entry of the source. One block for each molecule: values may come before it.

Key:
[1] = test system: RANKL-differentiated RAW 264.7 cells; test: Hydroxyapatite resorption on Corning Osteo-Assay Surface plates; assay type: cell-based, mouse; conditions: for acid secretion of osteoclasts (in words): murine osteoclasts
Experimental: RAW 264.7 cells (American Type Culture Collection (ATCC), cat. no. TIB-71) were differentiated in the presence of 100 ng/ml RANKL on synthetic mineralized surfaces of Corning Osteo-Assay Surface 96-well plates (Corning Inc. Life Sciences, Lowell, Mass.; cat. no. 3988XX1). Cells were cultured for 5 days in 200 μl α-MEM (Grand Island Biological Co. (GIBCO)/Invitrogen Corp. cat. no. 12571-063) with 10% fetal bovine serum (FBS; (GIBCO/Invitrogen) cat. no. 10437-028, Lot 1233072). Exposure of cells to RANKL and KM91104 was continuous throughout the experiment. The complete medium was changed on the third day. On day 5, cells were removed using 3% sodium hypochlorite solution. Plates were air dried and then imaged using digital brightfield photomicrography (Leica DM IRE2 with OpenLab software, Leica Microsystems, Richmond Hill, Canada). Image analysis was carried out with NIH ImageJ software (National Institutes of Health, Bethesda, Md.). Concentrations of KM91104 (μM) in medium were as follows: a, control, vehicle only; b, 0.63; c, 1.25; d, 2.5; e, 5.0; f, 10; g, 20; h, 40.
The concentration range of KM91104 tested was from 0.3 to 40 μM, as indicated (see Materials and Methods). C indicates control, vehicle only added. […] Error bars indicate +/−SD (n=3).
Bone resorption (FIGS. 13 and 14) was assayed using the following method. RAW 264.7 cells were differentiated on synthetic mineralized surfaces in 96 well Corning Osteo Assay Surface plates with 100 ng/ml RANK ligand. Wells were simultaneously treated with the lead compound. Cells were cultured for 5 days in […] of α-MEM. The complete medium was changed on the third day. On day 5, cells were removed using 50% bleach solution. Plates were dried and imaged using digital brightfield photomicrograpy. Image analysis was carried out using ImageJ.

[2] = test system: undifferentiated RAW 264.7 cells; test: Protein assay on cell cultures (effect on cellular growth); assay type: cell-based, mouse; conditions: for effect on cell growth, metabolic activity, cytotoxicity (in words): at 1.25 μM / at a concentration efficacious in inhibiting acid secretion; for concentration that did not significantly affect cell growth / total protein: undifferentiated RAW 264.7 cells, 0.3 to 40 μM tested, n=3
Experimental: Concentration range of compound tested was from 0.3 to 40 μM, as indicated (n=3, error bars are +/−SD). […] C indicates control, vehicle only added. The test cell line was undifferentiated RAW 264.7 cells.

RAW 264.7 cells [3] = test: Total solubilized TRAP assay of RANKL-mediated differentiation; assay type: cell-based, mouse; conditions: 3 days of growth with RANKL, 0.3 to 40 μM tested
Experimental: The concentration range of compound tested was from 0.3 to 40 μM, as indicated (see Materials and Methods). C indicates control, vehicle only added. TRAP is a marker for osteoclast differentiation and will convert colorless p-nitrophenylphosphate to yellow nitrophenol under acidic conditions. The yellow color is quantified spectrophotometrically and indicates degree of differentiation after 3 days of growth with RANKL.

RAW 264.7 cells [4] = test: TRAP staining analysis (qualitative and cell counts) of RANKL-mediated differentiation and fusion; assay type: cell-based, mouse; conditions: for effect on osteoclast formation, differentiation and fusion (in words): at 1.25 μM / at a concentration efficacious in inhibiting acid secretion, where stated
Experimental: The concentration range of compound tested was from 0.6 to 40 μM, as follows (in μM): a, control, vehicle only; b, 0.63; c, 1.25; d, 2.5; e, 5.0; f, 10; g, 20; h, 40. […] The latter observation is consistent with the conclusion of the protein assay of FIG. 7.
Plotted are cell counts for multinucleated cells with greater than 3 nuclei after treatment with compound KM91104. This figure confirms the qualitative conclusion of FIG. 10 that there is a drop off in the number of larger osteoclasts above 1.25 μM concentration.

[5] = test system: mouse bone marrow-derived macrophages (BMM); test: TRAP staining of osteoclasts RANKL-differentiated from bone marrow-derived macrophages; assay type: cell-based; conditions: 1.25 μM
Experimental: Panels show: a, control, vehicle only; b and c are duplicates with 1.25 μM KM91104.

[6] = test system: undifferentiated RAW 264.7 cells; test: MTT assay to determine cytotoxicity; assay type: cell-based, mouse
Experimental: The concentration range of compound tested was from 0.3 to 40 μM, as indicated (n=3). Yellow MTT is converted to purple formazan by mitochondrial reductases. Formazan is measured spectrophotometrically to deduce metabolic activity of test cells. Reduced metabolic activity indicates metabolic dysfunction due to cytotoxicity. In this case, significant cytotoxicity is not seen up to 2.5 μM KM91104 concentration. C indicates control, vehicle only added. The test cell line was undifferentiated RAW 264.7 cells.

[7] = target: TRX-NTa3 fusion protein (TRX-G2-NTa3(1-393)), N-terminal domain of mouse V-ATPase subunit a3 fused to thioredoxin (mouse); test: ELISA, plate coated with TRX-NTa3, GST-NTB2 against GST-B2(GH)
[8] = target: TRX-NTa3 fusion protein (TRX-G2-NTa3(1-393)), N-terminal domain of mouse V-ATPase subunit a3 fused to thioredoxin (mouse); test: ELISA, plate coated with TRX-NTa3, GST-NTB2 as analyte; apparent Kd
[9] = target: TRX-NTa3 fusion protein (TRX-G2-NTa3(1-393)), N-terminal domain of mouse V-ATPase subunit a3 fused to thioredoxin (mouse); test: ELISA saturation curve, plate coated with TRX-NTa3, GST-B1 as analyte; apparent Kd from half-maximal binding
[10] = target: TRX-NTa3 fusion protein (TRX-G2-NTa3(1-393)), N-terminal domain of mouse V-ATPase subunit a3 fused to thioredoxin (mouse); test: ELISA, plate coated with TRX-NTa3, GST-CTB2 as analyte; apparent Kd
[11] = target: TRX-NTa3 fusion protein (TRX-G2-NTa3(1-393)), N-terminal domain of mouse V-ATPase subunit a3 fused to thioredoxin (mouse); test: ELISA saturation curve, plate coated with TRX-NTa3, GST-B2 as analyte; apparent Kd from half-maximal binding

Molecule: O=C(N/N=C/c1ccccc1O)c1ccc(O)c(O)c1 [KM91104, 3,4-dihydroxy-N′-(2-hydroxybenzylidene)benzohydrazide]
IC50 ([1]; Mus musculus, RAW264.7, 120 h, 5 days, continuous exposure to RANKL and compound, image analysis of resorption areas, n=3, read-out: concentration for approximately half-maximal inhibition of resorption): ~1250 nM
effect on resorption (in words) ([1]; in vitro, synthetic mineralized surface, listed as lead compound): inhibited resorption without affecting osteoclast formation; also recorded: prevents bone resorption in vitro
reduction in resorption ([1]; lowest concentration tested (range 0.3 to 40 μM)): Highly significant reduction in resorption
acid secretion of osteoclasts (in words) ([1]; listed as lead compound): inhibits acid secretion
acid secretion of osteoclasts (in words) ([1]; listed as the compound): significantly reduced acid secretion
effect on cell growth, metabolic activity, cytotoxicity (in words) [2]: does not affect cell growth or cause cytotoxicity
effect on cell growth, metabolic activity, cytotoxicity (in words) ([2]; listed as lead compound): no discernable effect on growth or metabolic activity
concentration that did not significantly affect cell growth / total protein [2]: up to 20 μM
concentration that did not significantly affect cell growth / total protein ([2]; listed as lead compound): < 20 µM
concentration up to which differentiation / mature osteoclast formation is not appreciably affected (TRAP) (RAW 264.7 cells [3]): up to 20 μM
concentration up to which differentiation / mature osteoclast formation is not appreciably affected (TRAP) (RAW 264.7 cells [3]; listed as lead compound): < 20 µM
concentration above which osteoclast size / number of larger osteoclasts (>3 nuclei) is reduced (fusion impaired) (RAW 264.7 cells [4]; RANKL-differentiated RAW 264.7, 0.6 to 40 μM tested): above 1.25 μM
TRAP staining of cells (RAW 264.7 cells [4]; all concentrations, 0.63 to 40 μM): essentially all cells stain for TRAP
effect on osteoclast formation, differentiation and fusion (in words) (RAW 264.7 cells [4]): does not affect osteoclast differentiation or fusion to form large osteoclasts
effect on osteoclast formation, differentiation and fusion (in words) (RAW 264.7 cells [4]; listed as lead compound): limited effect on their ability to differentiate or undergo fusion
effect on osteoclast formation, differentiation and fusion (in words) (RAW 264.7 cells [4]; listed as the compound): little effect on osteoclast formation and differentiation
cell density (RAW 264.7 cells [4]; highest concentration (40 μM)): reduction of cell density
concentration that does not affect osteoclast fusion (RAW 264.7 cells [4]; summary of FIGS. 10 and 11): < 5 µM
formation / maturation of large BMM-derived osteoclasts [5]: does not significantly affect the formation of large osteoclasts
formation / maturation of large BMM-derived osteoclasts ([5]; listed as lead compound): does not affect BMM derived osteoclast maturation
toxicity (in words) ([6]; murine RAW264.7 cells): low toxicity
concentration up to which significant cytotoxicity is not seen (MTT) ([6]; undifferentiated RAW 264.7 cells, 0.3 to 40 μM tested, n=3): up to 2.5 μM

Molecule: GST-B1(GH) fusion protein (GST-G2-B1(1-513)-G2H6G2), full length mouse V-ATPase subunit B1 fused to glutathione-S-transferase (from UniProt Q91YH6)
Kd [9]: 2.3 nM

Molecule: GST-B2(GH) fusion protein (GST-G2-B2(1-511)-G2H6G2), full length mouse V-ATPase subunit B2 fused to glutathione-S-transferase
Kd [11]: 2.4 nM

Continued, values first:

fold reduction of binding against the full-length B2 subunit [7]: 60 fold
Kd [8]: 230 nM
Molecule: GST-NTB2 fusion protein (GST-G2-B2(1-112)), N-terminal domain of mouse V-ATPase subunit B2 fused to glutathione-S-transferase

Kd [10]: 4.1 nM
Molecule: GST-CTB2 fusion protein (GST-G2-B2(148-511)), C-terminal domain of mouse V-ATPase subunit B2 fused to glutathione-S-transferase
